Results reported in patent US5932709A (University of Michigan, priority 1997, dated 1999).
Values after ≈ are worked out from the molar mass of the structure shown.

Key:
[1] = system: HT-29 human colon adenocarcinoma cells; assay: MTT growth inhibition, HT-29; format: cell-based; conditions: 144 h, HT-29, MTT, 6 days, read-out: Growth Inhibitory Activity IC50
Experimental: (§1) Camptothecin was used as a control to test the anti-cancer efficacy of the novel camptothecin analogs of the present invention.
(§2) Murine B16 melanoma cell line was grown in RPMI 1640 medium supplemented with 10% heat-inactivated fetal bovine serum, 2 mM L-glutamine, 50 units/mL penicillin, 50 μg/mL streptomycin, 25 μg/mL gentamicin, 0.75% sodium bicarbonate 10 mM HEPES buffer (pH 7.4), and 0.06 mg/mL AntiPPLO. Murine P388 leukemic cell line and human HT-29 colon adenocarcinoma line were maintained in RPMI 1640 medium supplemented with 10% heat-inactivated fetal bovine serum. […] MCF-7M human breast adenocarcinoma was maintained in IMEM supplemented with 5% non heat-inactivated fetal bovine serum and 1 nM insulin.
(§3) [See "Rapid Colorimetric Assay For Cellular Growth And Survival: Application To Proliferation And Cytotoxicity Assays," J. Immun. Meth. 65:55 (1983)]. The assay utilizes a tetrazolium salt to quantitatively measure mammalian cell survival and proliferation by colorimetric methods. In particular, MTT, a pale yellow compound with minimal absorbance, is incubated with cancerous cells in addition to (or in the absence of) a particular camptothecin analog. Living cells with active mitochondrial enzymes metabolize the MTT into a dark blue/purple formazan product with high absorbance. The exact procedure used to test the camptothecin analogs of the present invention is described below.
(§4) Exponentially growing cells (1-2×10^3 cells, unless specified otherwise) in 0.1 mL medium were seeded on day 0 in a 96-well microtiter plate. On day 1, 0.1 mL aliquots of medium containing graded concentrations of test analogs were added to the cell plates. After incubation at 37° C. in a humidified incubator for 3 days (P388, P388/CPT, B16) or 6 days (HT-29, MCF-7M), the plates were centrifuged briefly and 100 μL of the growth medium was removed. Cell cultures were incubated with 50 μL of 3-(4,5-dimethylthiazol-2-yl)-2,5-diphenyl-tetrazolium bromide [MTT, 1 mg/mL in Dulbecco's phosphate buffered saline (PBS)] for 4 hr at 37° C. The resulting purple formazan precipitate was solubilized with 200 μL of 0.04 N HCl in isopropyl alcohol. Absorbance was monitored in a BioRad Model 3550 Microplate Reader at a test wavelength of 570 nm and a reference wavelength of 630 nm. The absorbance is transferred to a PC 486 computer. The IC50 values were determined by a computer program (EZ-ED50) that fits all of the data to the following four-parameter logistic equation:
(§5) Y=(Amax -Amin)/(1+[X/IC^50 ])^n +Amin
(§6) where Amax is the absorbance of control cells, Amin is the absorbance of cells in the presence of highest agent concentration, IC^50 is the concentration of agent that inhibits the cell growth by 50% of control cells (based on the absorbance) and n is the slope of the curve.

[2] = system: MCF-7 human breast tumor cells; assay: MTT growth inhibition, MCF-7; format: cell-based; conditions: MCF7, 144 h, MCF-7, MTT, 6 days, read-out: Growth Inhibitory Activity IC50
Experimental: as §1, §2, §3, §4, §5, §6

[3] = system: B16 murine melanoma cells; assay: MTT growth inhibition, B16; format: cell-based; conditions: Mus musculus, 72 h, 3 days, read-out: Growth Inhibitory Activity IC50
Experimental: as §1, §2, §3, §4, §5, §6

[4] = system: MX-1 human breast tumor xenograft; assay: in vivo
From the text: For all the models, the vehicle used to deliver the analog of interest was isotonic saline.
For the MX-1 human breast tumor xenograft models, the following procedure was used. Nude mice are implanted s.c. by trocar with fragments of MX-1 mammary carcinomas harvested from s.c. growing MX-1 tumors in nude mice hosts. When tumors are approximately 5 mm×5 mm in size (usually about ten days after inoculation), the animals are pair-matched into treatment and control groups. Each group contains ten tumored mice, each of which is ear-tagged and followed individually throughout the experiment. The administration of drugs or vehicle begins the day the animals are pair-matched (day 1). The doses, route of drug administration and schedule are selected as appropriate for the study in question. If the MTD dose of an agent is not known, it is determined in an initial dosing experiment in non-tumored mice. In a typical experiment, drugs are given at their MTD and 1/2 MTD doses i.p. on a daily×5 schedule.
The experiment is usually terminated when control tumors reach a size of 2-3 g. Mice are weighed twice weekly, and tumor measurements are taken by calipers twice weekly, starting on day 1. These tumor measurements are converted to mg tumor weight by a well known formula, and from these calculated tumor weights the termination date can be determined. Upon termination, all mice are weighed, sacrificed, and their tumors excised. Tumors are weighed, and the mean tumor weight per group is calculated.
Some drugs cause tumor shrinkage in the MX-1 model. With these agents, the final weight of a given tumor is subtracted from its own weight at the start of the treatment on day 1. This difference divided by the initial tumor weight is the % shrinkage. A mean % tumor shrinkage can be calculated from data from the mice in a group that experienced MX-1 regressions. If the tumor completely disappears in a mouse, this is considered a complete regression or complete tumor shrinkage. If desired, mice with partial or total tumor regressions can be kept alive past the termination date to see whether they live to become long term, tumor-free survivors.
Note that in the following table the abbreviation SR refers to tumor shrinkage rate, while those entries followed by a superscripted `2` are tumor growth inhibition rates, not tumor shrinkage rates.

[5] = system: P388 murine leukemia cells; assay: MTT growth inhibition, P388; format: cell-based; conditions: Mus musculus, 72 h, 3 days, read-out: Growth Inhibitory Activity IC50
Experimental: as §1, §2, §3, §4, §5, §6

[6] = Water solubility in phosphate buffered saline (spectrophotometric assay); format: physicochemical; conditions: for solubility at 24 h: aqueous buffer, water solubility, PBS pH 7.5, room temperature; for water solubility improvement: compared to camptothecin
Experimental: Approximately 5 mg of test compound was suspended in 1 mL of PBS in a 1.5 mL cryovial. The suspensions were mixed continuously on a Thermolyne vari-mix at room temperature for 24 hr. The suspensions were then centrifuged at 14000×g for 2 minutes to separate the undissolved materials. The supernatant fluids were diluted appropriately with PBS and the ultraviolet spectrums were recorded on a Beckman 640 DU spectrophotometer. For comparison, a standard stock (2 mg/mL in DMSO) solution was prepared for each analog. The ultraviolet spectrum of a 20 of 40 μg/mL standard working solution was measured. The water solubility of each analog was calculated based on the following formula:
Cunknown =Cstandard ×(Aunknown
where Cunknown is the concentration of the unknown solution to be determined; Cstandard is the concentration of the standard working solution (either 20 or 40 μg/mL); Astandard is the absorbance at 350 nm of the standard working solution; DDilution is the appropriate dilution factor used so that the absorbance of the unknown working solution is within the dynamic range of the UV spectrophotometer (less than 2 absorbance units).

CC[C@@]1(O)C(=O)OCc2c1cc1n(c2=O)Cc2c-1nc1ccccc1c2CO[C@@H]1C=C[C@H](O[C@H]2O[C@H](CO)[C@@H](O)[C@H](O)[C@H]2O)[C@@H](CO)O1 [HAR6, 7-[4-O-(α-D-glucopyranosyl)-2,3-dideoxy-α-D-erythro-hex-2-enopyranosyl]-oxymethylcamptothecin]
IC50 [1]: 0.476 µg/mL (≈ 0.712 µM)
IC50 [2]: 111 ng/mL (≈ 0.166 µM)
IC50 [3]: 2.43 µg/mL (≈ 3.63 µM)
mice with growth inhibition ([4]; 50 mg/kg): 2
mice with tumor shrinkage ([4]; 50 mg/kg): 8
SR(%) (Tumor Shrinkage Rate) ([4]; 50 mg/kg i.p. daily×5): 81%
Shrinkage (animals) ([4]; 50 mg/kg i.p. daily×5): 8/10
Tox Deaths ([4]; 50 mg/kg i.p. daily×5): 0/10
ΔWeight (%) ([4]; 50 mg/kg i.p. daily×5): +2.5%
tumor growth inhibition ([4]; 50 mg/kg, remaining 2 animals): 82%
body weight loss ([4]; 100 mg/kg): approximately 19%
drug-related deaths ([4]; 100 mg/kg): the tenth animal died of toxicity and one
mice with tumor shrinkage ([4]; 100 mg/kg): 9
SR(%) (Tumor Shrinkage Rate) ([4]; 100 mg/kg i.p. daily×5): 94%
Shrinkage (animals) ([4]; 100 mg/kg i.p. daily×5): 9/10
Tox Deaths ([4]; 100 mg/kg i.p. daily×5): 1/10
ΔWeight (%) ([4]; 100 mg/kg i.p. daily×5): -18.6%
antitumor activity vs. MX-1 ([4]; in words): impressive antitumor activity vs. MX-1
IC50 [5]: 1.68 µg/mL (≈ 2.51 µM)
solubility at 24 h [6]: 1620 µg/mL (≈ 2420 µM)
water solubility improvement [6]: 80 fold

CC[C@@]1(O)C(=O)OCc2c1cc1n(c2=O)Cc2c-1nc1ccccc1c2CO[C@@H]1C=C[C@H](O[C@H]2O[C@H](COC(C)=O)[C@@H](OC(C)=O)[C@H](OC(C)=O)[C@H]2OC(C)=O)[C@@H](COC(C)=O)O1 [HAR5, 7-[6-O-acetyl-4-O-(2,3,4,6-tetra-O-acetyl-α-D-glucopyranosyl)-2,3-dideoxy-α-D-erythro-hex-2-enopyranosyl]oxymethylcamptothecin]
IC50 [1]: 0.105 µg/mL (≈ 0.119 µM)
IC50 [2]: 10 ng/mL (≈ 0.0114 µM)
IC50 [3]: 0.43 µg/mL (≈ 0.489 µM)
Tox Deaths ([4]; 100 mg/kg i.p. daily×5): 0/10
animals with tumor growth inhibition (Shrinkage column) ([4]; 100 mg/kg i.p. daily×5): 10/10
ΔWeight (%) ([4]; 100 mg/kg i.p. daily×5): +7.4%
Tumor growth inhibition rate (footnote 2, SR column) ([4]; 100 mg/kg i.p. daily×5, 10/10 animals): 48%
mice with growth inhibition ([4]; 200 mg/kg): 7
mice with tumor shrinkage ([4]; 200 mg/kg): 3
Shrinkage (animals) ([4]; 200 mg/kg i.p. daily×5): 3/10
Tox Deaths ([4]; 200 mg/kg i.p. daily×5): 0/10
animals with tumor growth inhibition (Shrinkage column) ([4]; 200 mg/kg i.p. daily×5): 7/10
ΔWeight (%) ([4]; 200 mg/kg i.p. daily×5): +5.3%
SR(%) (Tumor Shrinkage Rate) ([4]; 200 mg/kg i.p. daily×5, 3/10 animals): 73%
Tumor growth inhibition rate (footnote 2, SR column) ([4]; 200 mg/kg i.p. daily×5, 7/10 animals): 82%
IC50 [5]: 0.362 µg/mL (≈ 0.412 µM)
solubility at 24 h [6]: 35 µg/mL (≈ 39.8 µM)

CC[C@@]1(O)C(=O)OCc2c1cc1n(c2=O)Cc2c-1nc1ccccc1c2CO[C@@H]1C=C[C@H](OC(C)=O)[C@@H](COC(C)=O)O1 [HAR4, 7-[4,6-di-O-acetyl-2,3-dideoxy-α-D-erythro-hex-2-enopyranosyl]oxymethylcamptothecin]
IC50 [1]: 0.011 µg/mL (≈ 0.0186 µM)
IC50 [2]: 2.7 ng/mL (≈ 0.00457 µM)
IC50 [3]: 0.026 µg/mL (≈ 0.044 µM)
complete disappearance of tumors (animals) ([4]; 10 mg/kg): 2
Tox Deaths ([4]; 10 mg/kg i.p. daily×5): 0/10
ΔWeight (%) ([4]; 10 mg/kg i.p. daily×5): -10.2%
SR(%) (Tumor Shrinkage Rate) ([4]; 10 mg/kg i.p. daily×5, 8/10 animals): 77%
Shrinkage (animals) ([4]; 10 mg/kg i.p. daily×5, partial (77%)): 8/10
SR(%) (Tumor Shrinkage Rate) ([4]; 10 mg/kg, 2/10 animals): 100%
Shrinkage (animals) ([4]; 10 mg/kg, complete (100%) shrinkage): 2/10
mice with tumor shrinkage ([4]; 10 mg/kg, mean 77%): 8
SR(%) (Tumor Shrinkage Rate) ([4]; 20 mg/kg i.p. daily×5): 99%
Shrinkage (animals) ([4]; 20 mg/kg i.p. daily×5): 1/10
Tox Deaths ([4]; 20 mg/kg i.p. daily×5): 9/10
toxicity ([4]; 20 mg/kg, in words): toxic
antitumor activity vs. MX-1 ([4]; in words): almost equivalent, outstanding activity
IC50 [5]: 0.03 µg/mL (≈ 0.0508 µM)
solubility at 24 h [6]: 155 µg/mL (≈ 262 µM)

CC[C@@]1(O)C(=O)OCc2c1cc1n(c2=O)Cc2c-1nc1ccccc1c2CO[C@@H]1C=C[C@H](O)[C@@H](CO)O1 [HAR7, 7-[2,3-dideoxy-α-D-erythro-hex-2-enopyranosyl]-oxymethylcamptothecin]
IC50 [1]: 0.031 µg/mL (≈ 0.0612 µM)
IC50 [2]: 6.4 ng/mL (≈ 0.0126 µM)
IC50 [3]: 0.173 µg/mL (≈ 0.342 µM)
mice with tumor shrinkage ([4]; 20 mg/kg): 10
SR(%) (Tumor Shrinkage Rate) ([4]; 20 mg/kg i.p. daily×5): 98%
Shrinkage (animals) ([4]; 20 mg/kg i.p. daily×5): 10/10
Tox Deaths ([4]; 20 mg/kg i.p. daily×5): 0/10
ΔWeight (%) ([4]; 20 mg/kg i.p. daily×5): -0.05%
weight loss ([4]; 20 mg/kg, in words): virtually no weight loss
SR(%) (Tumor Shrinkage Rate) ([4]; 40 mg/kg i.p. daily×5): 98%
Shrinkage (animals) ([4]; 40 mg/kg i.p. daily×5): 5/10
Tox Deaths ([4]; 40 mg/kg i.p. daily×5): 4/10
ΔWeight (%) ([4]; 40 mg/kg i.p. daily×5): -25.0%
toxicity ([4]; 40 mg/kg, in words): produced lethality
antitumor activity vs. MX-1 ([4]; in words): almost equivalent, outstanding activity
IC50 [5]: 0.088 µg/mL (≈ 0.174 µM)
solubility at 24 h [6]: 62 µg/mL (≈ 122 µM)
water solubility improvement [6]: 16 fold
